We go through 16 molecules from the SangsterLogP compilation.

The data set can be described thus: method code SF-AS, from PMID: 7312925.
Turning to `Cc1[nH]n2cnnc2c(=O)c1N`, the logP (usually the decadic logarithm of the partition coefficient of the neutral form, usually between octanol and water) is -0.52.

Consider `Cc1[nH]n2cnnc2c(=O)c1N=O`, for which the logP is -1.1.

As to `CC(=O)Nc1nnc(C)cc1O`, the logP is -0.89.

As for `Cc1cc(O)c(Cl)nn1`, the lipophilicity (logP) was -0.82.

Take `Cc1cc(O)c(O)nn1`: the logP was -0.3.

As for `Cc1cc(O)c(N)nn1`, the logP was -0.85.

As for `Cc1cc(OCC(=O)O)c(Cl)nn1`, the logP was -1.22.

The molecule `Cc1cc(S)c(N)nn1` gave a lipophilicity (logP) of 0.13.

On to `Cc1cc(C)c(N)nn1`, for which the logP is -0.32.

`Cc1[nH]n2cnnc2c(=O)c1Br` came in with a lipophilicity (logP) of -0.68.

For `Cc1cc(=O)c2nncn2[nH]1`, the lipophilicity (logP) was -0.21.

The molecule `Cc1cc(C)c(N/N=C\c2ccccc2)nn1` yielded a lipophilicity (logP) of 0.93.

With `Cc1cc(O)c(N2CCOCC2)nn1`, the log partition coefficient (logP) is -0.06.

Molecule `Cc1cc(O)c(N(C)C)nn1` gave a logP of 0.24.

`CCOc1cc(=O)c2nncn2[nH]1` showed a logP of 0.02.

`Cc1cc(C)c(NN(C=O)Cc2ccccc2)nn1` yielded a logP of 0.61.
